Here are results for 1 molecule from patent US8784804B2, “Nutraceutical composition that comprises extract of andean shilajit, for preventing and/or treating neurodegenerative diseases and/or the cognitive deterioration associated with cerebral aging” (Centro Internacional de Biomedicina (ICC), priority 2009, dated 2014).

For the data set, the system named is neuroblastoma cells (N-115 cell line). In words: Shilajit's toxicity in nerve cell culture (MTT assay, calcein-AM). Format: cell-based. To be noted: 10 mM H2O2, positive control of neuronal death. As for the experimental part: The toxicity of the composition's main component was determined, whose toxicity in nerve cells was unknown up to now. This study consisted in the application of concentrations ranging from 10 to 50 mg/mL to a culture of neuroblastoma cells (N-115 cell line) (MTT assay) and subsequent observation of neuronal death through fluorescent microscopy using the calcein-AM method that determines the morphologic integrity.

In the case of `OO` [H2O2], the “% neuronal death” value is reported as 100.0% and the A550 is given as 0.050.
